The test system of series [1] is A549 cells. In words: Constant exposure to probes, time-lapse and flow cytometry after 72 h. The series is classed as cell-based, human. Particulars: within 24 hours. As to the method: Timelapse imaging, in accordance with Errington R J et al, Time-lapse microscopy approaches to track cell cycle and lineage progression at the single-cell level, Curr Protoc Cytom. 2013 April; Chapter 12: Unit 12.4, was carried out in relation to cells with exposure to probe compounds.
(§1) In this regard, A549 cells were seeded in a 24 well coverslip bottomed-plate, cultured overnight in McCoys media for 24 or 48 hours. The plates were placed onto an inverted automated microscope, with the capacity for acquiring an image sequence of different wells (therefore exposure to different agent labelling). An Axiovert 100 microscope (Carl Zeiss, Welwyn Garden City, UK) was fitted with an incubator for 37° C./5% CO2 maintenance (Solent Scientific, Portsmouth, UK), and an ORCA-ER CCD camera (Hamamatsu, Reading, UK). Illumination was controlled by a shutter in front of the transmission lamp, and an x, y positioning stage with separate z-focus (Prior Scientific, Cambridge, UK) controlled multi-field acquisition. Image capture was controlled using Metamorph software.
Cells were exposed to a constant dose (0-5 μM) or a pulsed dose of 0 or 20 μM agent for 15 minutes followed by washout with warmed full media. […]
A549 cell lines were monitored using time-lapse collection and lineage progression, in constant exposure to compounds of the invention. The effects on cells were also determined. […]

In series [2] the test system is A549 cells. In words: Pulse exposure to probes, time-lapse, reimaged after 72 h. The series is classed as cell-based, human. The note with it: 20 uM for 15 mins, washout, T=72 h. On the procedure:
as §1
Cells were exposed to a constant dose (0-5 μM) or a pulsed dose of 0 or 20 μM agent for 15 minutes followed by washout with warmed full media.
All images were collected with a ×10 (PH1) apochromat objective lens providing a field size of 500 times 500 microns. In this case a phase contrast image was collected every 30 minutes for 72 hours. Single cell growth and expansion can be tracked over time. The cells were harvested and run through a flow cytometry (typically a FACS Calibur 635 nm excitation/661/16 emission).
A549 cells were loaded with 20 uM BST-101, BST-109 or BST-110 for 15 mins followed by washout. Cells were then time-lapsed and reimaged after T=72 h, as before, […]

The nature of series [3]: Absorption and fluorescence spectra of compounds in PBS or HEPES. The series is classed as physicochemical. The note with it: for peak excitation wavelength: excitation wavelength used for fluorescence spectra of FIG. 1A/1B; for fluorescence emission, 540 nm (Ex in PBS): excited at 540 nm; for fluorescence emission, 540 nm (Ex in PBS) / fluorescence emission, λ1 nm (Ex in HEPES) / fluorescence emission, λ1 nm (Ex in PBS): 20 μM; for fluorescence emission, λ1 nm (Ex in HEPES) / fluorescence emission, λ1 nm (Ex in PBS): excited at absorption peak 1 (λ1). In short, it runs like this:
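Compounds (20 μM working solutions) in PBS or HEPES, read in quartz cuvette against buffer baseline, absorbance scanned 280–800 nm. Emission scanned 400–900 nm in 1 nm steps with excitation at each compound's first absorption peak or 540 nm, ten reads per point. DRAQ5 served as reference; spectra normalised to peak.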

`COC(CNC(=O)CCNc1ccc(NCCN(C)C)c2c1C(=O)c1ccccc1C2=O)OC` [BST-109, N-(2,2-Dimethoxyethyl)-3-(4-(2-(dimethylamino)ethylamino)-9,10-dioxo-9,10-dihydroanthracen-1-ylamino)propanamide]: the “localisation of probe during constant exposure” value with A549 cells [1] was “predominantly in a membrane compartment of the cytoplasm”. Besides, the “cell division and signal retention / location after pulse exposure” value with A549 cells [2] was “dividing, and signal retained but now relocated in a non-nuclear compartment perinuclear”. In addition, in series [3], the peak excitation wavelength was determined as 584 nm; the “fluorescence emission, 540 nm (Ex in PBS)” value turned out to be 660 nm; the “fluorescence emission, λ1 nm (Ex in HEPES)” value came to 660 nm; the “fluorescence emission, λ1 nm (Ex in PBS)” value is given as 666 nm.
Regarding `COC(CC(=O)NCCNc1ccc(NCCN(C)C)c2c1C(=O)c1ccccc1C2=O)OC` [BST-110, N-(2-(4-(2-(dimethylamino)ethylamino)-9,10-dioxo-9,10-dihydroanthracen-1-ylamino)ethyl)-3,3-dimethoxypropanamide], the “localisation of probe during constant exposure” value in the series with A549 cells [1] is on record as “predominantly in a membrane compartment of the cytoplasm”. Also, in the series on A549 cells [2], the “cell division and signal retention / location after pulse exposure” value was “dividing, and signal now relocated in a non-nuclear compartment perinuclear”. Also, in series [3], the peak excitation wavelength was found to be 583 nm; the “fluorescence emission, 540 nm (Ex in PBS)” value is given as 662 nm; the “fluorescence emission, λ1 nm (Ex in HEPES)” value came out at 660 nm; the “fluorescence emission, λ1 nm (Ex in PBS)” value was determined as 665.5 nm.

These data come from patent US11447638B2, “Acetalanthraquinone derivatives useful for cellular staining” (BIOSTATUS LIMITED, priority 2016, dated 2022).
